Earlier results on 31 molecules are cited in the PKSmart pharmacokinetics tables (Seal et al. 2025).

In general, clearance refers to the rate of elimination divided by the concentration. What is called Vd is a proportionality between amount in the body and measured concentration, not a real space. One may read the half-life as the time needed for the level to fall by half in the phase considered. As usually defined, the fraction unbound is free concentration divided by total concentration.

One series is described as follows: not given per row; by the article one of three: Lombardo et al. 2013, J Clin Pharmacol 53:178, doi 10.1177/0091270012440282; 'New Drugs at FDA', novel drug approvals for 2021 and 2022 (the article's reference 43); Yap, Li, Chen 2006, J Mol Graph Model 24:383, doi 10.1016. Particulars: human; in vivo.
Regarding `CCCN[C@@H]1CCc2nc(N)sc2C1`, the clearance was 8.2 mL/min/kg.

For `CC(=O)OCC1=C(C(=O)O)N2C(=O)C(NC(=O)Cc3cccs3)[C@@H]2SC1` (stereo not given in full), the clearance was 6.7 mL/min/kg.

`O=c1[nH]c(=O)n([C@@H]2CCCO2)cc1F`: the clearance is 0.98 mL/min/kg.

Take `C[C@]12C=CC(=O)N[C@@H]1CC[C@@H]1[C@H]2CC[C@]2(C)C(C(=O)Nc3cc(C(F)(F)F)ccc3C(F)(F)F)CC[C@@H]12` (stereo not given in full): the clearance was 0.14 mL/min/kg.

On to `NC(=O)c1ncn([C@H]2O[C@H](CO)[C@@H](O)[C@@H]2O)c1N`, for which the clearance was 41.7 mL/min/kg.

Regarding `NC[C@H](CC(=O)O)c1ccc(Cl)cc1`, the clearance was 2.72 mL/min/kg.

As for `CC(C)NC[C@@H](O)COc1ccc(COCCOC(C)C)cc1`, the clearance is 3.55 mL/min/kg.

Turning to `COC(=O)C1C=C2CC(=O)CC[C@]2(C)[C@@]23O[C@H]2C[C@@]2(C)[C@H](CC[C@]24CCC(=O)O4)[C@@H]13` (stereo not given in full), the clearance is 2.38 mL/min/kg.

In the case of `Cc1ccc(-c2cc(C(F)(F)F)nn2-c2ccc(S(N)(=O)=O)cc2)cc1`, the clearance was 7.59 mL/min/kg.

Regarding `CCCC[C@](C)(O)C/C=C\[C@H]1C(CCCCCCC(=O)OC)C(=O)C[C@@H]1O` (stereo not given in full), the clearance was 240 mL/min/kg.

As for `COc1cc2nccc(Oc3ccc(NC(=O)Nc4cc(C)on4)c(Cl)c3)c2cc1OC`, the Vd is 2.05 L/kg, the clearance was 0.21 mL/min/kg and the half-life is 111 h.

As to `[2H]C([2H])([2H])NC(=O)c1nnc(NC(=O)C2CC2)cc1Nc1cccc(-c2ncn(C)n2)c1OC`, the Vd is 2.33 L/kg, the clearance is 0.68 mL/min/kg and the half-life is 10 h.

`COC(=O)C(c1ccccc1)C1CCCCN1C(=O)OC[n+]1cccc(C(=O)NC(CO)C(=O)[O-])c1` (stereo not given): the Vd was 29.3 L/kg, the clearance was 60 mL/min/kg and the half-life was 5.7 h.

As for `C[C@@H](CCc1ccc(O)cc1)NCCc1ccc(O)c(O)c1`, the clearance was 59 mL/min/kg.

On to `Nc1ccn(C[C@H](CO)OCP(=O)(O)O)c(=O)n1`, for which the clearance was 2.3 mL/min/kg.

`CCC(C)C(=O)O[C@@H]1C[C@@H](O)C=C2C=C[C@@H](C)[C@H](CC[C@H](O)C[C@H](O)CC(=O)O)[C@H]21` (stereo not given in full): the clearance was 8.5 mL/min/kg.

Consider `C[C@H](CC(c1ccccc1)c1ccccc1)NC(C)(C)C`, for which the clearance was 0.95 mL/min/kg.

On to `CCOc1ncc(C)c2c1[C@H](c1ccc(C#N)cc1OC)C(C(N)=O)C(C)=N2` (stereo not given in full), for which the Vd is 0.88 L/kg, the clearance was 6.94 mL/min/kg and the half-life was 2.5 h.

As for `O=C1Nc2ccc(Cl)cc2[C@@](C#CC2CC2)(C(F)(F)F)O1`, the clearance was 3.1 mL/min/kg.

Turning to `C=C/C=C/C[C@@H](C)[C@@H](O)C1C(=O)NC(CC)C(=O)N(C)CC(=O)N(C)C(CC(C)C)C(=O)NC(C(C)C)C(=O)N(C)C(CC(C)C)C(=O)NC(C)C(=O)NC(C)C(=O)N(C)C(CC(C)C)C(=O)N(C)C(CC(C)C)C(=O)N(C)C(C(C)C)C(=O)N1C` (stereo not given in full), the volume of distribution (Vd) is 35.9 L/kg, the clearance was 17.7 mL/min/kg and the half-life is 30 h.

For `Cc1cc(C=CC#N)cc(C)c1Nc1ccnc(Nc2ccc(C#N)cc2)n1`, the Vd is 2.71 L/kg and the half-life was 44.5 h.

As for `C[C@@H]1C[C@H]2[C@@H]3C[C@H](F)C4=CC(=O)C=C[C@]4(C)[C@@]3(F)[C@H](O)C[C@]2(C)[C@@]1(O)C(=O)SCF`, the clearance is 15.6 mL/min/kg.

As for `C[C@H]1CN(c2cc3c(cc2F)c(=O)c(C(=O)O)cn3-c2ccc(F)cc2F)CCN1`, the clearance was 3.19 mL/min/kg.

With `CC(=O)N1CCN(c2ccc(OC[C@@H]3CO[C@](Cn4ccnc4)(c4ccc(Cl)cc4Cl)O3)cc2)CC1`, the clearance was 8.4 mL/min/kg.

Consider `NC(=O)N1c2ccccc2C=Cc2ccccc21`, for which the clearance was 1.11 mL/min/kg.

Turning to `O=C(O)CN1C(=O)C(NC(CCc2ccccc2)C(=O)O)CCc2ccccc21` (stereo not given), the clearance was 0.35 mL/min/kg.

Regarding `COc1ccnc(C[S@@+](O)c2nc3cc(OC(F)F)ccc3[n-]2)c1OC`, the clearance was 2.57 mL/min/kg.

`CCOC(=O)C(Cc1ccc(F)cc1)NC(=O)C(N)Cc1ccc(N(CCCl)CCCl)cc1` (stereo not given): the volume of distribution (Vd) is 0.58 L/kg, the clearance is 192 mL/min/kg and the half-life is 0.04 h.

Take `CCN(CC)CCC[C@@H](C)Nc1ccnc2cc(Cl)ccc12`: the clearance is 7.09 mL/min/kg.

For the molecule `COc1cc2c(cc1OC)CN(C(=O)C(C)NC(CCc1ccccc1)C(=O)O)C(C(=O)O)C2` (stereo not given), the clearance was 3.31 mL/min/kg.

As to `C[C@H](CN1CCN(CCOCCO)CC1)CN1c2ccccc2Sc2ccccc21`, the clearance was 17.5 mL/min/kg.

The series is the same for the next values; noted with them: human; plasma.
Take `COc1cc2nccc(Oc3ccc(NC(=O)Nc4cc(C)on4)c(Cl)c3)c2cc1OC`: the fraction unbound is 0.01.

For the molecule `[2H]C([2H])([2H])NC(=O)c1nnc(NC(=O)C2CC2)cc1Nc1cccc(-c2ncn(C)n2)c1OC`, the unbound share (fraction unbound) was 0.14.

Regarding `COC(=O)C(c1ccccc1)C1CCCCN1C(=O)OC[n+]1cccc(C(=O)NC(CO)C(=O)[O-])c1` (stereo not given), the unbound share (fraction unbound) was 0.44.

As to `CCOc1ncc(C)c2c1[C@H](c1ccc(C#N)cc1OC)C(C(N)=O)C(C)=N2` (stereo not given in full), the unbound share (fraction unbound) was 0.08.

For the molecule `C=C/C=C/C[C@@H](C)[C@@H](O)C1C(=O)NC(CC)C(=O)N(C)CC(=O)N(C)C(CC(C)C)C(=O)NC(C(C)C)C(=O)N(C)C(CC(C)C)C(=O)NC(C)C(=O)NC(C)C(=O)N(C)C(CC(C)C)C(=O)N(C)C(CC(C)C)C(=O)N(C)C(C(C)C)C(=O)N1C` (stereo not given in full), the fraction unbound was 0.03.

On to `Cc1cc(C=CC#N)cc(C)c1Nc1ccnc(Nc2ccc(C#N)cc2)n1`, for which the fraction unbound was 0.3.
